Here are results for 22 compounds from patent US6143769A, “Phenylacetic acid benzylamides” (Karl Thomae GmbH, priority 1983, dated 2000).

Where two headings read alike, the source gives them in different places.

The test concerns blood glucose. The experiment in a line: Test for hypoglycemic activity in fasted female rats (oral). It is filed as in vivo. The settings on record: for change in vivo at 1 mg/kg / change in vivo at 0.5 mg/kg: Rattus norvegicus, po, read-out: Change in glucose content compared with control. The procedure: Blood samples were taken immediately before the administration of the test compound and 1, 2, 3 and 4 hours afterwards, in each case from the retroorbital Venous plexus. 50 μl of each sample were deproteinated with 0.5 ml of 0.33 N perchloric acid and centrifuged. The glucose in the supernatant fluid was measured using the hexokinase method with the aid of an analytical photometer. The statistical evaluation was made using the t-test according to Student with p=0.05 as the limit of significance.

For `CCOc1cc(CC(=O)NC(c2ccccc2)c2ccc(C)cc2N2CCCCC2)ccc1C(=O)O` (stereo not drawn) [M, 2-ethoxy-4-[N-(4-methyl-α-phenyl1-2-piperidino-benzyl)-aminocarbonylmethyl]-benzoic acid], the change in vivo at 1 mg/kg runs as follows: (1 mg/kg, 1 h) -44%; (1 mg/kg, 2 h) -41%; (1 mg/kg, 3 h) -35%; (1 mg/kg, 4 h) -27%.
As for `CCOc1cc(CC(=O)NC(c2ccccc2)c2ccccc2N2CCCCC2)ccc1CC#N` (stereo not drawn) [P, [2-ethoxy-4-[N-(α-phenyl-2-piperidino-benzyl)-aminocarbonylmethyl]-phenyl]acetonitrile], the change in vivo at 1 mg/kg is, setting by setting: (1 mg/kg, 1 h) -12%; (1 mg/kg, 2 h) -10%; (1 mg/kg, 3 h) -14%; (1 mg/kg, 4 h) -14%.
For `COc1cc(CC(=O)NC(C)c2ccccc2N2CCCCC2)ccc1C(=O)O` (centres unmarked) [Compound A, 2-methoxy-4-[N-{1-(2-piperidino-phenyl)-1-ethyl}-aminocarbonylmethyl]-benzoic acid], the change in vivo at 1 mg/kg by setting is: (1 mg/kg, 1 h) -37%; (1 mg/kg, 2 h) -46%; (1 mg/kg, 3 h) -23%; (1 mg/kg, 4 h) -14%.
As for `COc1cc(CC(=O)NC(c2ccccc2)c2ccccc2N2CCCCC2)ccc1C(=O)O` (stereo not drawn) [C, 2-methoxy-4-[N-(α-phenyl-2-piperidino-benzyl)-aminocarbonymethyl]-benzoic acid], the change in vivo at 1 mg/kg (1 mg/kg, 1 h) was -38%; the change in vivo at 1 mg/kg (1 mg/kg, 2 h) was -41%; the change in vivo at 1 mg/kg (1 mg/kg, 3 h) was -38%; the change in vivo at 1 mg/kg (1 mg/kg, 4 h) was -34%.
Take `C#CCC(NC(=O)Cc1ccc(C(=O)O)c(OCC)c1)c1ccccc1N1CCCCC1` (centres unmarked) [Y, 2-ethoxy-4-[N-(1-(2-piperidino-phenyl)-3-butyn-1-yl)-aminocarbonylmethyl]benzoic acid]: for the setting “0.5 mg/kg, 4 h”, the “Change in glucose content compared with control” value (“Change in glucose content” for short) was “n.s”. Also, the change in vivo at 0.5 mg/kg (0.5 mg/kg, 1 h) was -33%; the change in vivo at 0.5 mg/kg (0.5 mg/kg, 2 h) was -18%; the change in vivo at 0.5 mg/kg (0.5 mg/kg, 3 h) is -11%.
For the compound `CCCC(NC(=O)Cc1ccc(C(=O)O)c(OC)c1)c1ccccc1N1CCCCC1` (centres unmarked) [I, 2-methoxy-4-[N-{1-(2-piperidino-phenyl)-1-butyl}-aminocarbonylmethyl]-benzoic acid], the change in vivo at 0.5 mg/kg was -42% (0.5 mg/kg, 1 h); -39% (0.5 mg/kg, 2 h); -37% (0.5 mg/kg, 3 h); -30% (0.5 mg/kg, 4 h).
The corresponding values for `CCCC(NC(=O)Cc1ccc(C(=O)O)c(OCC)c1)c1ccccc1N1CCCC1` (centres unmarked) [G, sodium 2-ethoxy-4-[N-{1-(2-pyrrolidino-phenyl)-1-butyl}-aminocarbonylmethyl]-benzoate] are -40%, -33%, -30% and -17%.
For `CCCC(NC(=O)Cc1ccc(C(=O)O)c(OCC)c1)c1ccccc1N1CCCCC1` (centres unmarked) [B, 2-ethoxy-4-[N-{1-(2-piperidino-phenyl)-1-butyl}-aminocarbonylmethyl]-benzoic acid], the change in vivo at 0.5 mg/kg reads like this: (0.5 mg/kg, 1 h) -43%; (0.5 mg/kg, 2 h) -36%; (0.5 mg/kg, 3 h) -34%; (0.5 mg/kg, 4 h) -35%. The change in vivo at 1 mg/kg is -38% (1 mg/kg, 1 h); -49% (1 mg/kg, 2 h); -38% (1 mg/kg, 3 h); -33% (1 mg/kg, 4 h).
Consider `C=CCC(NC(=O)Cc1ccc(C(=O)O)c(OCC)c1)c1ccccc1N1CCCCC1` (centres unmarked) [W, 2-ethoxy-4-[N-(1-(2-piperidino-phenyl)-3-buten-1-yl)-aminocarbonylmethyl]benzoic acid], for which the change in vivo at 0.5 mg/kg runs as follows: (0.5 mg/kg, 1 h) -42%; (0.5 mg/kg, 2 h) -39%; (0.5 mg/kg, 3 h) -28%; (0.5 mg/kg, 4 h) -35%.
Consider `CCOc1cc(CC(=O)NC(C)c2ccccc2N2CCCCC2)ccc1C(=O)O` (centres unmarked) [F, 2-ethoxy-4-[N-{1-(2-piperidino-phenyl)-1-ethyl}-aminocarbonylmethyl]-benzoic acid], for which the change in vivo at 1 mg/kg is, setting by setting: (1 mg/kg, 1 h) -44%; (1 mg/kg, 2 h) -44%; (1 mg/kg, 3 h) -40%; (1 mg/kg, 4 h) -30%.
For the compound `CCCC(NC(=O)Cc1ccc(C(=O)O)c(OCC)c1)c1ccccc1N1CCCCCC1` (centres unmarked) [H, 2-ethoxy-4-[N-{1-(2-hexamethyleneimino-phenyl)-1-butyl}-aminocarbonylmethyl]-benzoic acid], the “Change in glucose content” value (0.5 mg/kg, 4 h) is “n.s”. Moreover, the change in vivo at 0.5 mg/kg by setting is: (0.5 mg/kg, 1 h) -42%; (0.5 mg/kg, 2 h) -34%; (0.5 mg/kg, 3 h) -18%.
`CCOc1cc(CC(=O)NC(C(=O)OC)c2ccccc2N2CCCCC2)ccc1C(=O)O` (stereo not drawn) [S, 2-ethoxy-4-[N-(α-methoxycarbonyl-2-piperidino-benzyl)-aminocarbonylmethyl]-benzoic acid]: the change in vivo at 1 mg/kg was -42% (1 mg/kg, 1 h); -35% (1 mg/kg, 2 h); -28% (1 mg/kg, 3 h); -18% (1 mg/kg, 4 h).
Take `CCOc1cc(CC(=O)NC(CC2CCCO2)c2ccccc2N2CCCCC2)ccc1C(=O)O` (stereo not drawn) [V, 2-ethoxy-4-[N-(α-(tetrahydrofuran-2-yl-methyl)-2-piperidino-benzyl)-aminocarbonylmethyl]benzoic acid]: the change in vivo at 0.5 mg/kg (0.5 mg/kg, 1 h) was -46%; the change in vivo at 0.5 mg/kg (0.5 mg/kg, 2 h) was -25%; the change in vivo at 0.5 mg/kg (0.5 mg/kg, 3 h) was -13%; the change in vivo at 0.5 mg/kg (0.5 mg/kg, 4 h) is -10%.
As to `C=C(C)CC(NC(=O)Cc1ccc(C(=O)O)c(OCC)c1)c1ccccc1N1CCCCC1` (centres unmarked) [X, 2-ethoxy-4-[N-(1-(2-piperidino-phenyl)-3-methyl-3-buten-1-yl)-aminocarbonylmethyl]benzoic acid], the change in vivo at 0.5 mg/kg by setting is: (0.5 mg/kg, 1 h) -44%; (0.5 mg/kg, 2 h) -41%; (0.5 mg/kg, 3 h) -31%; (0.5 mg/kg, 4 h) -28%.
`CCOc1cc(CC(=O)NC(CC2CCCCC2)c2ccccc2N2CCCCC2)ccc1C(=O)O` (stereo not drawn) [Q, 2-ethoxy-4-[N-(α-cyclohexylmethyl-2-piperidino-benzyl)-aminocarbonyl-methyl]-benzoic acid]: the change in vivo at 0.5 mg/kg (0.5 mg/kg, 1 h) is -22%; the change in vivo at 0.5 mg/kg (0.5 mg/kg, 2 h) was -47%; the change in vivo at 0.5 mg/kg (0.5 mg/kg, 3 h) was -45%; the change in vivo at 0.5 mg/kg (0.5 mg/kg, 4 h) is -45%.
For `CCOc1cc(CC(=O)NC(C(=O)OC(C)C)c2ccccc2N2CCCCC2)ccc1C(=O)O` (stereo not drawn) [T, 2-ethoxy-4-[N-(α-isopropoxycarbonyl-2-piperidino-benzyl)-aminocarbonylmethyl]benzoic acid], the “Change in glucose content” value (1 mg/kg, 4 h) is listed as “n.s”. Also, the change in vivo at 1 mg/kg runs as follows: (1 mg/kg, 1 h) -36%; (1 mg/kg, 2 h) -21%; (1 mg/kg, 3 h) -18%.
Turning to `CCCC(NC(=O)Cc1ccc(CC#N)c(OCC)c1)c1ccccc1N1CCCCC1` (centres unmarked) [O, [2-ethoxy-4-[N-(1-(2-piperidino-phenyl)-1-butyl)-aminocarbonylmethyl]-phenyl]-acetonitrile], the change in vivo at 1 mg/kg runs as follows: (1 mg/kg, 1 h) -29%; (1 mg/kg, 2 h) -37%; (1 mg/kg, 3 h) -35%; (1 mg/kg, 4 h) -34%.
As to `CCCCC(NC(=O)Cc1ccc(C(=O)O)c(OCC)c1)c1ccccc1N1CCCCC1` (centres unmarked) [L, 2-ethoxy-4-[N-{1-(2-piperidino-phenyl)-1-pentyl}-aminocarbonylmethyl]-benzoic acid], the change in vivo at 0.5 mg/kg is -42% (0.5 mg/kg, 1 h); -45% (0.5 mg/kg, 2 h); -38% (0.5 mg/kg, 3 h); -39% (0.5 mg/kg, 4 h).
On to `CCCC(NC(=O)Cc1ccc(C(=O)O)c(OCC)c1)c1ccccc1N1CCCCC1` (single isomer, unassigned; (+)) [E, (+)-2-ethoxy-4-[N-{1-(2-piperidino-phenyl)-1-butyl}-aminocarbonylmethyl]-benzoic acid], for which the change in vivo at 0.5 mg/kg is, setting by setting: (0.5 mg/kg, 1 h) -40%; (0.5 mg/kg, 2 h) -39%; (0.5 mg/kg, 3 h) -36%; (0.5 mg/kg, 4 h) -36%.
For the compound `CCOC(=O)C(NC(=O)Cc1ccc(C(=O)O)c(OCC)c1)c1ccccc1N1CCCCC1` (stereo not drawn) [R, 2-ethoxy-4-[N-(α-ethoxycarbonyl-2-piperidino-benzyl)-aminocarbonylmethyl]-benzoic acid], the “Change in glucose content” value (1 mg/kg, 3 h) is recorded as “n.s” and the “Change in glucose content” value (1 mg/kg, 4 h) is “n.s”. Besides, the change in vivo at 1 mg/kg (1 mg/kg, 1 h) was -33% and the change in vivo at 1 mg/kg (1 mg/kg, 2 h) was -17%.
With `CCCOc1cc(CC(=O)NC(CCC)c2ccccc2N2CCCCC2)ccc1C(=O)O` (centres unmarked) [K, 2-n-propoxy-4-[N-{1-(2-piperidino-phenyl)-1-butyl}-aminocarbonylmethyl]-benzoic acid], the “Change in glucose content” value (0.5 mg/kg, 4 h) is reported as “n.s”. For the same compound, the change in vivo at 0.5 mg/kg by setting is: (0.5 mg/kg, 1 h) -34%; (0.5 mg/kg, 2 h) -36%; (0.5 mg/kg, 3 h) -24%.
Take `CCOc1cc(CC(=O)NC(CC2CC2)c2ccccc2N2CCCCC2)ccc1C(=O)O` (stereo not drawn) [U, 2-ethoxy-4-[N-(α-cyclopropylmethyl-2-piperidino-benzyl)-aminocarbonylmethyl]benzoic acid]: the change in vivo at 0.5 mg/kg by setting is: (0.5 mg/kg, 1 h) -45%; (0.5 mg/kg, 2 h) -45%; (0.5 mg/kg, 3 h) -36%; (0.5 mg/kg, 4 h) -36%.
